We go through 52 sequences from the supplement of paper PMC11208160.
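Note: IS621 bridge recombinase in Escherichia coli cells against a fixed T5 target plasmid.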

A short description of the data set: recombinant UMI read abundance after kanamycin selection (control-corrected) (log10(CPM+1)); higher = more efficient recombination; extreme values may be limits of the assay; sequences stand for … in AGTGCAGAGAAAATCGGCCAGTTTTCTCTGCCTGCAGTCCGCATGCCGTGGGACCCCTTGGGTTCTAACCTGTTGCCTAGATTTATGCAGCGGACTGCCTTTCTCCCAAAGTGATAAACCGG…AGGTTGGTTTCACT; site = the 11-nt donor. In short, it runs like this:
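In Escherichia coli, a pool of donor and donor-binding-loop pairs, each with a 12-nt UMI, was tested for the IS621 bridge recombinase. Plating was on IPTG (0.07 mM) plus kanamycin, or without selection, in two replicates. Recombinant UMIs were amplified by PCR across the donor–target junction and sequenced, and counts were reported as log10(CPM+1) after averaging and control-derived scaling.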
“TCCCACCCATGGACCGGTTTTCCCGGTAATCCGTATTTGCA (site TCCCACCCTTG)”: the “recombinant UMI read abundance (log10)” value turned out to be 0.
With “TCCCATACATGGACCGGTTTTCCCGGTAATCCGTATTTGGC (site TCCCATACTGC)” the figure was 0; with “TCCCCCGCATGGACCGGTTTTCCCGGTAATCCGTATTTGCG (site TCCACCGCTCG)”, 0.00501.
With “TCCCCCGCATGGACCGGTTTTCCCGGTAATCCGTATTTGCG (site TCCCCCGCTCG)” the figure was 0.0127; with “TCCCCCGCATGGACCGGTTTTCCCGGTAATCCGTATTTGCG (site TCCGCCGCTCG)”, 0.0064; with “TCCCCCGCATGGACCGGTTTTCCCGGTAATCCGTATTTGCG (site TCCTCCGCTCG)”, 0.00786.
The result for “TCCCCTACATGGACCGGTTTTCCCGGTAATCCGTATTTGCC (site TCCCCTACTGG)” reads 0; that for “TCCCTTACATGGACCGGTTTTCCCGGTAATCCGTATTTGTA (site TCCCTTACTTA)”, 0.0182.
With “TCCCTTGCATGGACCGGTTTTCCCGGTAATCCGTATTTGGT (site TCCCTTGCTAC)”, the “recombinant UMI read abundance (log10)” value was determined as 0.
On to “TCCGACGCATGGACCGGTTTTCCCGGTAATCCGTATTTGCT (site TCCGACGCTAG)”, for which the “recombinant UMI read abundance (log10)” value was found to be 0.968.
For “TCCGGAACATGGACCGGTTTTCCCGGTAATCCGTATTTGCT (site TCCGGAACTAG)”, the “recombinant UMI read abundance (log10)” value came to 0.
The result for “TCCGGGTCATGGACCGGTTTTCCCGGTAATCCGTATTTGAC (site GGAATCGCTAG)” reads 0.
The result for “TCCGGTCCATGGACCGGTTTTCCCGGTAATCCGTATTTGCA (site ACCGGTCCTTG)” reads 0; that for “TCCGGTCCATGGACCGGTTTTCCCGGTAATCCGTATTTGCA (site CCCGGTCCTTG)”, 0.
With “TCCGGTCCATGGACCGGTTTTCCCGGTAATCCGTATTTGCA (site GCCGGTCCTTG)”, the “recombinant UMI read abundance (log10)” value was found to be 0.
For “TCCGGTCCATGGACCGGTTTTCCCGGTAATCCGTATTTGCA (site TCCGGTCCTTG)”, the “recombinant UMI read abundance (log10)” value worked out at 0.
Consider “TCCTACGCATGGACCGGTTTTCCCGGTAATCCGTATTTGCC (site TCCTACGCTGG)”, for which the “recombinant UMI read abundance (log10)” value is 0.
Turning to “TCCTCCACATGGACCGGTTTTCCCGGTAATCCGTATTTGGT (site TCCTCCACTAC)”, the “recombinant UMI read abundance (log10)” value amounted to 0.0263.
With “TCCTCGCCATGGACCGGTTTTCCCGGTAATCCGTATTTGTT (site TCCTCGCCTAA)” the figure was 0.0142.
With “TCCTGAACATGGACCGGTTTTCCCGGTAATCCGTATTTGCT (site TCCTGAACTAG)”, the “recombinant UMI read abundance (log10)” value came to 0.
The result for “TCCTGGCCATGGACCGGTTTTCCCGGTAATCCGTATTTGTA (site TCCTGGCCTTA)” reads 0.0229; that for “TCCTTACCATGGACCGGTTTTCCCGGTAATCCGTATTTGGA (site TCCTTACCTTC)”, 0.00485.
With “TCCTTCGCATGGACCGGTTTTCCCGGTAATCCGTATTTGCT (site GATCCACCTTC)” the figure was 0.0105.
With “TCGAAAACATGGACCGGTTTTCCCGGTAATCCGTATTTGCT (site ACGAAAACTAG)” the figure was 0.
In the case of “TCGAAAACATGGACCGGTTTTCCCGGTAATCCGTATTTGCT (site CCGAAAACTAG)”, the “recombinant UMI read abundance (log10)” value came to 0.679.
With “TCGAAAACATGGACCGGTTTTCCCGGTAATCCGTATTTGCT (site GCGAAAACTAG)” the figure was 0; with “TCGAAAACATGGACCGGTTTTCCCGGTAATCCGTATTTGCT (site TCGAAAACTAG)”, 0; with “TCGAAGTCATGGACCGGTTTTCCCGGTAATCCGTATTTGCG (site TCGAAGTCTCG)”, 1.9.
“TCGACGGCATGGACCGGTTTTCCCGGTAATCCGTATTTGAC (site TCGACGGCTGT)”: the “recombinant UMI read abundance (log10)” value came out at 0.0562.
With “TCGACGGCATGGACCGGTTTTCCCGGTAATCCGTATTTGTG (site TCGACGGCTCA)” the figure was 0.539; with “TCGATAGCATGGACCGGTTTTCCCGGTAATCCGTATTTGGG (site TCGATAGCTCC)”, 0.00329; with “TCGATGGCATGGACCGGTTTTCCCGGTAATCCGTATTTGCC (site TCGATGGCTGG)”, 0.
The result for “TCGATGTCATGGACCGGTTTTCCCGGTAATCCGTATTTGTA (site TCGATGTCTTA)” reads 1.41; that for “TCGATGTCATGGACCGGTTTTCCCGGTAATCCGTATTTGTG (site TCGATGTCTCA)”, 0.868; that for “TCGCAAACATGGACCGGTTTTCCCGGTAATCCGTATTTGCC (site TCGCAAACTGG)”, 0.
Consider “TCGCAACCATGGACCGGTTTTCCCGGTAATCCGTATTTGTT (site TCGCAACCTAA)”, for which the “recombinant UMI read abundance (log10)” value worked out at 0.
The result for “TCGCATGCATGGACCGGTTTTCCCGGTAATCCGTATTTGGT (site TCGCATGCTAC)” reads 0.656.
The result for “TCGCCAGCATGGACCGGTTTTCCCGGTAATCCGTATTTGTG (site TCGCCAGCTCA)” reads 0.0192; that for “TCGCCATCATGGACCGGTTTTCCCGGTAATCCGTATTTGTT (site TCGCCATCTAA)”, 0.0036; that for “TCGCCTTCATGGACCGGTTTTCCCGGTAATCCGTATTTGGT (site TAGCCTTCTAC)”, 0.0118.
The result for “TCGCCTTCATGGACCGGTTTTCCCGGTAATCCGTATTTGGT (site TCGCCTTCTAC)” reads 0.00817; that for “TCGCCTTCATGGACCGGTTTTCCCGGTAATCCGTATTTGGT (site TGGCCTTCTAC)”, 0.00543.
In the case of “TCGCCTTCATGGACCGGTTTTCCCGGTAATCCGTATTTGGT (site TTGCCTTCTAC)”, the “recombinant UMI read abundance (log10)” value came out at 0.00786.
With “TCGCGAACATGGACCGGTTTTCCCGGTAATCCGTATTTGTA (site TCGCGAACTTA)” the figure was 1.18; with “TCGCTAGCATGGACCGGTTTTCCCGGTAATCCGTATTTGAA (site TAGCTAGCTTT)”, 0.00313; with “TCGCTAGCATGGACCGGTTTTCCCGGTAATCCGTATTTGAA (site TCGCTAGCTTT)”, 0.00622.
On to “TCGCTAGCATGGACCGGTTTTCCCGGTAATCCGTATTTGAA (site TGGCTAGCTTT)”, for which the “recombinant UMI read abundance (log10)” value was 0.
With “TCGCTAGCATGGACCGGTTTTCCCGGTAATCCGTATTTGAA (site TTGCTAGCTTT)” the figure was 0.0117; with “TCGCTAGCATGGACCGGTTTTCCCGGTAATCCGTATTTGGC (site TCGCTAGCTGC)”, 0; with “TCGCTGTCATGGACCGGTTTTCCCGGTAATCCGTATTTGGA (site TCGCTGTCTTC)”, 1.34.
With “TCGGAGACATGGACCGGTTTTCCCGGTAATCCGTATTTGAT (site TCGGAGACTAT)” the figure was 1.93; with “TCGGATACATGGACCGGTTTTCCCGGTAATCCGTATTTGCC (site TCGGATACTGG)”, 0.615.
